Reference: article PMC3292874 (Bioconjugate Chemistry, 2011)

Target: PC-PLC (phosphatidylcholine-specific phospholipase C) (Bacillus cereus, UniProt P09598)
Assay: fluorescence of dequenched Pyro-PtdEtn-BHQ hydrolysis, initial rate
Type: biochemical

PC-PLC (phosphatidylcholine-specific phospholipase C), sequence (P09598 39-283 limits assumed): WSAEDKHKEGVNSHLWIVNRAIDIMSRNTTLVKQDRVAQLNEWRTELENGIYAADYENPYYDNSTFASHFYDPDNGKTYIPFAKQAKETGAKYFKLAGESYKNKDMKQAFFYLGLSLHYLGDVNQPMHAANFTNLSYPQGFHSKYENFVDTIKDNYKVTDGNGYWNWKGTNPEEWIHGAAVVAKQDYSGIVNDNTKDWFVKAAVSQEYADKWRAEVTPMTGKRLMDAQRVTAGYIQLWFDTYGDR

`S=C(S)OC1CC2CC1C1CCCC21` (stereo not shown) [D609] showed an IC50 of 34 ± 8 µM.
